Values quoted from earlier work, collected in patent publication US20170258746A1, “ACETIC ACID/THYMOL COMPOSITIONS AND THEIR USE IN THE TREATMENT OF ONYCHOMYCOSIS” (Dr. Paul's Enterprises, LLC, priority 2008, published 2017).

How the values were obtained:
onychomycosis = settings: oral, Arch. Dermatol. 134(12) (December 1998)
[1] = oral, in children; American Family Physician vol. 63, no. 4, Feb. 15, 2001

Row | Structure (SMILES) | disease-free nail, % of patients (onychomycosis) | toxicity [1]
1 | CN(C/C=C/C#CC(C)(C)C)Cc1cccc2ccccc12 [terbinafine] | 35-50% | 
2 | COC1=CC(=O)C[C@@H](C)[C@]12Oc1c(Cl)c(OC)cc(OC)c1C2=O [griseofulvin] |  | some level of toxicity
